A short description of assay [1]: toxicity to human hepatoma HepG2 cells – cell-based, cherry-picked samples, cytotoxicity control, dose response (AID 1159577). It is filed as functional.
The nature of assay [2]: P. falciparum Dd2 growth inhibitors, dose response, SYBR Green, cherry-picked samples (AID 1159567). It is filed as functional, cell-based.
In assay [3] the target is T1, Estrogen receptor (Homo sapiens, UniProt P03372).
T1 sequence (P03372 whole entry): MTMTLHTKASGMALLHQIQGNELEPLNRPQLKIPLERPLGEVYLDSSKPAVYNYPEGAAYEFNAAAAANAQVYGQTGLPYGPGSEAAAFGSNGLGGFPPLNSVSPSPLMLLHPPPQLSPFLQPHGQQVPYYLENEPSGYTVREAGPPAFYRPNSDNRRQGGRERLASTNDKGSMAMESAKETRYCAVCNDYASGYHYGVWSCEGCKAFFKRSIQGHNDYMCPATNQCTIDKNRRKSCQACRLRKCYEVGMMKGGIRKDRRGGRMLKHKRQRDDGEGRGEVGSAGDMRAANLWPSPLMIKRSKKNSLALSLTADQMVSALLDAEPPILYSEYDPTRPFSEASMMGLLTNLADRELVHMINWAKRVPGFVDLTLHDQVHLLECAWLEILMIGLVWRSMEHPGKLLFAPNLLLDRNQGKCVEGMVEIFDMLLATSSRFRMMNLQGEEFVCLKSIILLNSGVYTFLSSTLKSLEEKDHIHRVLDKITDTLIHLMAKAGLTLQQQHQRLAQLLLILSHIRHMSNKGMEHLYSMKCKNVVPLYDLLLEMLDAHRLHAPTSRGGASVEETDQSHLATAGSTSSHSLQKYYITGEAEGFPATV

The target in assay [4] is Estrogen receptor beta (Homo sapiens, UniProt Q92731).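 Further: recombinant ER-beta bound to coactivator SRC1 peptide in presence of estradiol agonist; inhibitors block coactivator peptide binding and lower the FRET signal.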
Assay [5] has as its target T2, Oxysterols receptor LXR-beta (Homo sapiens, UniProt P55055).
T2 sequence (P55055 whole entry): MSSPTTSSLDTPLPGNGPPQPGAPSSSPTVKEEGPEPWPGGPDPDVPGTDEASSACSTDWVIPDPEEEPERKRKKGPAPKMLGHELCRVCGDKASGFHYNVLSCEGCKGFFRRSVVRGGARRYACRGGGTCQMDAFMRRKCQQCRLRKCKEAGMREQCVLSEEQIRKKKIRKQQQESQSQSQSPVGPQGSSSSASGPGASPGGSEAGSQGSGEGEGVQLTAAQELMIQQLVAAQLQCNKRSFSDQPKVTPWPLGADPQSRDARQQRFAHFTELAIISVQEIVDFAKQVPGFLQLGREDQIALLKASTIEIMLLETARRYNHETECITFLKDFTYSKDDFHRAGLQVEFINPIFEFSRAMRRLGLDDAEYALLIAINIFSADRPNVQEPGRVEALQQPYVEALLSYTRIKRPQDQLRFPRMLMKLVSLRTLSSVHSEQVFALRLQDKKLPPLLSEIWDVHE
Briefly: LXR agonists, Gal4 luciferase reporter, dose response, counter-screen for ssDAF-12 agonist project, cell-based, luminescence, HEK293, S. stercoralis campaign (AID 720737). It is filed as functional. The following applies: read-out: IC50 (the source's name). A general note: Reporter assays use an easily measured gene product as a stand-in for the process of interest.

A short description of assay [6]: Luminescence-based cell-based high throughput dose response assay to identify activators of the DAF-12 from the parasite S. stercoralis (ssDAF-12). The format is functional.
Assay [7] deals with T2, Oxysterols receptor LXR-beta. It is filed as functional, cell-based.
Assay [8] in a line: fluconazole-exposed Candida albicans growth modulators – fluorescence, retest, confirmation (AID 2467). It is filed as functional, cell-based.
Assay [9] can be described thus: NIH-3T3 fibroblast cytotoxicity, dose response, cytotoxicity control, cell-based, fluorescence, Alamar Blue, secondary assay (AID 2327).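 Further: NIH-3T3 mouse fibroblasts cultured with fluconazole at 8 µg/mL.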 It is filed as functional. For orientation: Alamar Blue is a resazurin reagent that responds to reducing activity.
The nature of assay [10]: Counterscreen for activators of the function of SWI/SNF related, matrix associated, actin dependent regulator of chromatin, subfamily a, member 2 (SMARCA2, BRM): Luminescence-based cell-based high throughput dose response assay to identify non-selective compounds using the VP16 reporter assay. The format is functional. (In general: Counterscreens check selectivity or assay interference.)

In assay [11] the target is ATP-dependent molecular chaperone HSP82 (Candida albicans (strain WO-1) (Yeast), UniProt C4YTQ8). In words: steroid-induced GRE reporter decrease in yeast – S. cerevisiae, luminescence, Hsp90 inhibitor project, dose response (AID 2400).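 Further: beta-galactosidase luminescence from glucocorticoid response element reporter as proxy for Hsp90 function; inhibitor potency where signal loss means Hsp90 inhibition.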 The format is functional, cell-based.
Assay [12] has as its target T3, Serine/threonine-protein phosphatase (Candida dubliniensis (strain CD36 / CBS 7987 / NCPF 3949 / NRRLY-17841) (Yeast), UniProt B9W6M3).
T3 sequence (B9W6M3 whole entry): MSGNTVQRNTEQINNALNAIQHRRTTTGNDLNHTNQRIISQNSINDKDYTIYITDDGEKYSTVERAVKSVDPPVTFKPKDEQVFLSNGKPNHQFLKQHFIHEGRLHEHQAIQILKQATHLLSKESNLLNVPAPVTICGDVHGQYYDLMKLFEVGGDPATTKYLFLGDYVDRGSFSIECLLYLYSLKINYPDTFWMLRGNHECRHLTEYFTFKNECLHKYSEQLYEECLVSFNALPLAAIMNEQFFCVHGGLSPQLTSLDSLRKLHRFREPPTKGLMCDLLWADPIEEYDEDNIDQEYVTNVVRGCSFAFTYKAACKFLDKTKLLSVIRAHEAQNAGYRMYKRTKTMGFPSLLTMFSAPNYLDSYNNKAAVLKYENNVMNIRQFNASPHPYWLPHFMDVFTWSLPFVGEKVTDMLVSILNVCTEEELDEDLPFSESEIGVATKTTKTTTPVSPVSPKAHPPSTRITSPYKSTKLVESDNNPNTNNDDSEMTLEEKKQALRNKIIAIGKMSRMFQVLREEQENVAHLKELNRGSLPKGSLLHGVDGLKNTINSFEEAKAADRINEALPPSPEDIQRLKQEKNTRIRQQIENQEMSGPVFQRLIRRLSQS
In words: blockers of CaCl2-induced CDRE-lacZ signaling – S. cerevisiae, luminescence, secondary, dose response (AID 2388).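 Further: yeast reporter cells carrying a calcineurin-responsive lacZ construct stimulated with calcium chloride; luminescent beta-galactosidase reporter signal in whole cells rather than isolated phosphatase activity; potency for inhibition where a drop in reporter signal means calcineurin blockade.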 The format is functional, cell-based.

The target in assay [13] is SWI/SNF-related matrix-associated actin-dependent regulator of chromatin subfamily A member 2 (Homo sapiens, UniProt P51531). In words: Luminescence-based cell-based high throughput dose response assay to identify activators of the function of SWI/SNF related, matrix associated, actin dependent regulator of chromatin, subfamily a, member 2 (SMARCA2, BRM). The format is functional.

Assay [14] in a line: HGIII-sPLA2 enzyme inhibition potency – biochemical, QFRET, IC50, dose response (AID 743457).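 Further: green fluorescence rise as the enzyme cleaves BODIPY PC-A2 in liposomes.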
Assay [15] is described as follows: OVCAR-3 cell viability loss – plate reader, dry powder samples, PAX8 inhibitor project, dose response (AID 743044). It is filed as functional, cell-based.
Assay [16] is described as follows: general cell-killing toxicity readout – plate reader, dry powder samples, cytotoxicity control for PAX8 inhibitor project, dose response (AID 743021). The format is functional, cell-based.
Assay [17] is described as follows: IGROV1 cell killing – plate reader, dry powder samples, PAX8 inhibitor project, dose response (AID 743043). It is filed as functional, cell-based. To be noted: IGROV-1.
A short description of assay [18]: OVCAR8 cell viability loss – plate reader, dry powder samples, PAX8 project, dose response (AID 743197). It is filed as functional, cell-based. To be noted: OVCAR-8.
For assay [19], the target named is Paired box protein Pax-8 (Homo sapiens, UniProt Q06710). Briefly: PAX8 transcriptional activity inhibition in RMG-I – RMG-I cells, luciferase, cherry-pick, dose response (AID 687027).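 Further: luciferase reporter driven by Pax8 target thyroperoxidase promoter measured by SteadyGlo luminescence.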 It is filed as functional, cell-based.

Activity calls are given as the source filed them.

Chain of ATP-dependent molecular chaperone HSP82 (C4YTQ8 whole entry): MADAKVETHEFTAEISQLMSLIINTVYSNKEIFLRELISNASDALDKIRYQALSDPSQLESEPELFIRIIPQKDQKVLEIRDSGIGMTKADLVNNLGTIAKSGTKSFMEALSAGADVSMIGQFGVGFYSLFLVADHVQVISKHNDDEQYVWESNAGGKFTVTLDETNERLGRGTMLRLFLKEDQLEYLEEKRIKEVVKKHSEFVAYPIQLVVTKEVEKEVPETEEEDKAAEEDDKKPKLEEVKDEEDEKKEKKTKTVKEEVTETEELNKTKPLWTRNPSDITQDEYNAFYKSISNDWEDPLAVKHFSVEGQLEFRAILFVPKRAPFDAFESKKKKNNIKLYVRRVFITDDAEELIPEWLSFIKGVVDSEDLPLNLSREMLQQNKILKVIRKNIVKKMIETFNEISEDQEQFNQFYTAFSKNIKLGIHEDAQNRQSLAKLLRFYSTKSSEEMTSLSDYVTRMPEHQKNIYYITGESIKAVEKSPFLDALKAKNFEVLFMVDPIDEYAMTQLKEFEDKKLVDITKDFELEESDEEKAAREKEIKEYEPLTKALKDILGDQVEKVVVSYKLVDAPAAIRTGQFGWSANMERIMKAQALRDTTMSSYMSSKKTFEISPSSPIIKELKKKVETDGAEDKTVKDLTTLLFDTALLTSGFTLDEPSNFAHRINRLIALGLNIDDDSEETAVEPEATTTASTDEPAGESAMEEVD
Chain of SWI/SNF-related matrix-associated actin-dependent regulator of chromatin subfamily A member 2 (P51531 whole entry): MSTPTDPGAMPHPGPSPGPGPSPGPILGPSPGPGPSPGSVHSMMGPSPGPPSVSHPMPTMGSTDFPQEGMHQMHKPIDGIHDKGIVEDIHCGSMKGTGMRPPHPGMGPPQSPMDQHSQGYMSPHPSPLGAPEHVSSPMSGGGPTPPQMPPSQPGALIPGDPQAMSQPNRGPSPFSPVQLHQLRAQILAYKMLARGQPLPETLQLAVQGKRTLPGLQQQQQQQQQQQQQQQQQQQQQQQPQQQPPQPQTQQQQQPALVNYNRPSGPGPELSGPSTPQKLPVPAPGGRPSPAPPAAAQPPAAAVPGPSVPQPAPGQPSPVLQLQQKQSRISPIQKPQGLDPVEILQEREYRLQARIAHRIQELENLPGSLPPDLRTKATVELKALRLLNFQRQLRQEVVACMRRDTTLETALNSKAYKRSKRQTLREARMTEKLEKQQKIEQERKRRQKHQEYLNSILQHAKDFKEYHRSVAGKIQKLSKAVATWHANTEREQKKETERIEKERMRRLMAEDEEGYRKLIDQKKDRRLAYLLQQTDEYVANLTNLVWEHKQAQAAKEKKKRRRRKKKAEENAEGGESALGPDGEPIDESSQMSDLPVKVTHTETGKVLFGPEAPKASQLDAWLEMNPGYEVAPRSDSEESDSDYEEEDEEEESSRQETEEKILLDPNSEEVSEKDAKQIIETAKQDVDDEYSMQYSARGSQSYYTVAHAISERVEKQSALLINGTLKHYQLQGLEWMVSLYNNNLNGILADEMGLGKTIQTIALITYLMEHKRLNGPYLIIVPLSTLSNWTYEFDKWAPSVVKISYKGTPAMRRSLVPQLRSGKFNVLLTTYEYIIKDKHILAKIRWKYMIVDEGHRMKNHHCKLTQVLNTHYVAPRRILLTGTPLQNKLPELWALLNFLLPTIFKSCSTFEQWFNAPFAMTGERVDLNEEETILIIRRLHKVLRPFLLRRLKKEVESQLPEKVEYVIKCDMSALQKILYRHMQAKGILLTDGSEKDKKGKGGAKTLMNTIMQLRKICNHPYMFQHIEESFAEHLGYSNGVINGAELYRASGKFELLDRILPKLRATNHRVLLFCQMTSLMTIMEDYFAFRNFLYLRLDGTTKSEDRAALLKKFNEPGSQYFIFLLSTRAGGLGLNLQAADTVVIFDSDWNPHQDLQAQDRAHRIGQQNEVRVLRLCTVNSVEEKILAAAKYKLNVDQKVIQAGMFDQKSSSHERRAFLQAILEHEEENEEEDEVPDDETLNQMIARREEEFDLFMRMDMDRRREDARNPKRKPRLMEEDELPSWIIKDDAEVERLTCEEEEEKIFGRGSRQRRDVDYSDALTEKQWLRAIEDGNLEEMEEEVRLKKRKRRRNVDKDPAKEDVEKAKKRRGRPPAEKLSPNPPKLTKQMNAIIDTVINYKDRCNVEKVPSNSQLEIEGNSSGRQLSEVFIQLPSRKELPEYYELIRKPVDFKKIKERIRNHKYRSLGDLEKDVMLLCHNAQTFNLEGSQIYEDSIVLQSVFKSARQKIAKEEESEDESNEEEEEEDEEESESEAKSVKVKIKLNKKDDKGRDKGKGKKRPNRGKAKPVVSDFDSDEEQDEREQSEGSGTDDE
Chain of Estrogen receptor beta (Q92731 whole entry): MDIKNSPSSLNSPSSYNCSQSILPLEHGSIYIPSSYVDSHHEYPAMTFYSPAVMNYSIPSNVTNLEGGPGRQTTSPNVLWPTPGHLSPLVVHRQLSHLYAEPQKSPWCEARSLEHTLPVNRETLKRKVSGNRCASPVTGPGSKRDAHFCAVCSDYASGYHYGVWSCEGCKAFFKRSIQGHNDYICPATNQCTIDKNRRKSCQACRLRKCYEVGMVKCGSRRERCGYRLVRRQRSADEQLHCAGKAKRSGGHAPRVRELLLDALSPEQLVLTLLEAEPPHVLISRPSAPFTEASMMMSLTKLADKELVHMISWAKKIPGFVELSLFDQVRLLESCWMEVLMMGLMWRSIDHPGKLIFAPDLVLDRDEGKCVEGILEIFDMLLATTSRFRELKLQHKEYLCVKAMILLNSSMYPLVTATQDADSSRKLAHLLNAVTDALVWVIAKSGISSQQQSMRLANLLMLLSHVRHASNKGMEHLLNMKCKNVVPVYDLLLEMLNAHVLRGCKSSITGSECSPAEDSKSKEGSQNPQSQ
Chain of Paired box protein Pax-8 (Q06710 whole entry): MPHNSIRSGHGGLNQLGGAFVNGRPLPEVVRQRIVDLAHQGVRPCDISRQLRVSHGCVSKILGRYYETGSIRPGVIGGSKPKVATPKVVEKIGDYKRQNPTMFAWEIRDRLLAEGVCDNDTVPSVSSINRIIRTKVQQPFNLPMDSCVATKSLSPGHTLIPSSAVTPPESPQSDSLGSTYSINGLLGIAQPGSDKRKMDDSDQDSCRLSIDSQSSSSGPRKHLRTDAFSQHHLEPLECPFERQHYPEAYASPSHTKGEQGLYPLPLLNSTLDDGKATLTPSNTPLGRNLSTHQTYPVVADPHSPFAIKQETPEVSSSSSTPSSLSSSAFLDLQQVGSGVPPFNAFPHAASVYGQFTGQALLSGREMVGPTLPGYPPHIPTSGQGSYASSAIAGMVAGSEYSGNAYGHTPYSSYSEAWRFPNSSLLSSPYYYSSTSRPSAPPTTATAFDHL

For `COc1ccc(S(=O)(=O)N2CC[C@@H]3[C@@H](CO)Nc4ccc(-c5ccc(C#N)cc5)cc4[C@@H]32)cc1`, the half-maximal activity concentration (AC50) (in general, the midpoint of the concentration-response curve, whichever way the signal moves) is 3.16 µM (active) in [1] and 6.28 µM (active) in assay [2].

On to `O=C(c1cc(-c2ccco2)on1)N1CCCc2ccccc21`, for which the half-inhibitory concentration (IC50) in assay [3] and in assay [4] was > 50 µM (not active) each time.

Turning to `Cc1c(C(=O)Nc2nccs2)oc2ccccc12`, the EC50 in assay [5] and in assay [7] was > 67.6 µM (inactive) throughout. Further, the IC50 (commonly the midpoint of a concentration-inhibition curve) in assay [6] is > 67.6 µM (inactive).

Consider `CC(=O)c1sc(NC(=O)CCS(=O)(=O)c2ccccc2)nc1C`, for which the EC50 is 0.691 µM (active) in assay [8]; > 150 µM (inactive) in [9]; > 91.1 µM (inactive) in assay [10]; > 150 µM (inactive) in assay [11]; > 180 µM (inactive) in assay [12]; > 91.1 µM (inactive) in assay [13].

Take `CCCC#Cc1ccc([C@H]2[C@@H](CO)N3CCCCN(C(=O)NC4CCCC4)C[C@H]23)cc1`: the AC50 was 12.6 µM (active) in assay [1] and 5.27 µM (active) in assay [2].

Consider `CCCCOc1ccc(CSC(=N)N)cc1Cl`, for which, in [14], the IC50 is > 122 µM (inactive).

As for `C[C@H](CO)N1C[C@H](C)[C@@H](CN(C)S(=O)(=O)c2cccs2)OCCCC[C@H](C)Oc2ccc(NS(=O)(=O)c3ccc(Cl)cc3)cc2C1=O`, the concentration at half-maximal activity (AC50) in [15] is 29.4 µM (active); in [16], 54.6 µM (active); in [17], 66.4 µM (active); in [18] it was > 70 µM (inactive); in assay [19] it was 3.86 µM (active).

These data come from ChEMBL document CHEMBL1201862, “PubChem BioAssay data set” (2004).
